Ki data for eleven compounds are collected here from ChEMBL document CHEMBL1142843, “Synthesis and evaluation of a series of tropane analogues as novel vesicular monoamine transporter-2 ligands” (Bioorg Med Chem Lett, 2005).

A value given as a limit tells only on which side of the number the result lay.

For experiment [1], the target named is T1, Synaptic vesicular amine transporter (Rattus norvegicus, UniProt Q01827). Description: Inhibition constant against [3H]dihydrotetrabenazine binding to vesicular monoamine transporter-2 of rat synaptic vesicle membranes.
T1 sequence (Q01827 whole entry): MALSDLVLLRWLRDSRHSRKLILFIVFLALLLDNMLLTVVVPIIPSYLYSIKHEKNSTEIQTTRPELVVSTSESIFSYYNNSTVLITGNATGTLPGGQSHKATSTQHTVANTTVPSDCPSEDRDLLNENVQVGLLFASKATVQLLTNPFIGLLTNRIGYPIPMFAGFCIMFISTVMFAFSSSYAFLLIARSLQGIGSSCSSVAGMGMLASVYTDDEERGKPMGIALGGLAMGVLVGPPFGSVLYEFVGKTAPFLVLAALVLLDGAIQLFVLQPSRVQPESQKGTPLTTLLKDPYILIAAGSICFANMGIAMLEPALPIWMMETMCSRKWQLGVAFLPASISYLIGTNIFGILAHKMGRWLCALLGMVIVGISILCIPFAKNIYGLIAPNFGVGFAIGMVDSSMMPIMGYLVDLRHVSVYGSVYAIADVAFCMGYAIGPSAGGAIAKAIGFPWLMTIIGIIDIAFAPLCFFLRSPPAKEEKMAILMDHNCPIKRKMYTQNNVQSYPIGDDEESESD
The target of experiment [2] is Neuronal acetylcholine receptor alpha7 (Rattus norvegicus). In words: Inhibition constant against [3H]methyllycaconitine binding to alpha7 nicotinic acetylcholine receptor of rat brain membranes.
The target of experiment [3] is Neuronal acetylcholine receptor alpha4beta2 (Rattus norvegicus). Description: Inhibition constant against [3H]nicotine binding to alpha4beta2 nicotinic acetylcholine receptor of rat brain membranes.
Experiment [4] deals with T1, Synaptic vesicular amine transporter. In words: Inhibition constant against [3H]nicotine binding to vesicular monoamine transporter-2 of rat brain membranes.
Experiment [5] shares this target. In words: Inhibition constant against [3H]methyllycaconitine binding to vesicular monoamine transporter-2 of rat brain membranes.

The Ki is a dissociation constant, usually derived from enzyme kinetics or from competition with a known ligand. Regarding `COc1ccc(C[C@@H]2C[C@H](Cc3ccc(OC)cc3)C3CCC2N3C)cc1`, the Ki is 3.88 µM in experiment [1], > 100 µM in experiment [2] and > 100 µM in experiment [3].

In the case of `CN1C2CCC1[C@@H](Cc1ccc(F)cc1)C[C@H]2Cc1ccc(F)cc1`, the Ki in experiment [1], in experiment [2] and in experiment [3] was > 100 µM each time.

Turning to `CN1C2CCC1[C@@H](Cc1ccccc1)C(=O)[C@H]2Cc1ccccc1`, the inhibitory constant (Ki) in experiment [1], in experiment [2] and in experiment [3] was > 100 µM each time.

In the case of `CN1C2CC=C(Cc3ccccc3)C1CC2` (stereo not drawn), the Ki in experiment [1] is > 100 µM; in experiment [2], 15.2 µM; in experiment [3], 1.84 µM.

As to `CN1C2CCC1[C@H](Cc1ccccc1)CC2` (stereo partly drawn), the Ki in experiment [1] was > 100 µM; in experiment [2], 14 µM; in experiment [3], > 6.57 µM.

`CN1C2CCC1[C@@H](Cc1ccc(F)cc1)C=C2Cc1ccc(F)cc1` (stereo partly drawn): the Ki in experiment [1] was 1.38 µM; in experiment [2] it was > 100 µM; in experiment [3], > 100 µM.

On to `CN1C2CCC1[C@@H](CCCc1ccccc1)C[C@H]2CCCc1ccccc1`, for which the Ki in experiment [1] was 3.95 µM; in experiment [2], > 100 µM; in experiment [3] it was > 100 µM.

As to `COc1ccc(CC2=C[C@H](Cc3ccc(OC)cc3)C3CCC2N3C)cc1` (stereo partly drawn), the results for the Ki in experiment [1], in experiment [2] and in experiment [3] were 4.8 µM, > 100 µM and > 100 µM, respectively.

In the case of `CN1C2CCC1[C@@H](Cc1ccccc1)C[C@H]2Cc1ccccc1`, the Ki in experiment [1], in experiment [2] and in experiment [3] was > 100 µM in each case.

Regarding `CN1C2CCC1[C@@H](Cc1ccccc1)C(O)[C@H]2Cc1ccccc1` (stereo in doubt; 7a), the Ki in experiment [1], in experiment [2] and in experiment [3] was > 100 µM in each case.

`CN1C2CCC1[C@@H](Cc1ccccc1)C(O)[C@H]2Cc1ccccc1` (stereo in doubt; 7b): the Ki in experiment [1], in experiment [4] and in experiment [5] was > 100 µM in each case.
